In US9783532B2, “Molecules having certain pesticidal utilities, and intermediates, compositions, and processes related thereto” (Dow AgroSciences LLC, priority 2013, dated 2017) one finds pest or weed control data, which are given here for 24 compounds.

The test system of assay [1] is Beet Armyworm (Spodoptera exigua) ("BAW"). The experiment in a line: Bioassay on beet armyworm (BAW), 128-well diet tray assay. It counts as in vivo. The note with it: Table ABC (PC), activity rating class, read-out: BAW (Biological Results, Insect species). The gist of the method:
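Second-instar larvae (one to five per well) were placed on artificial diet surface-treated with 50 μg/cm^2 compound applied in 90:10 acetone-water and dried, eight wells per compound. Held at 25° C., 14:10 light-dark for five to seven days; percent mortality was scored per well and averaged over the eight wells.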

The subject of assay [2] is Cabbage Looper (Trichoplusia ni) ("CL"). Kind of assay: Bioassay on cabbage looper (CL), 128-well diet tray assay. It counts as in vivo. The settings on record: Table ABC (PC), activity rating class, read-out: CL (Biological Results, Insect species). The gist of the method:
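Second-instar larvae (one to five per well) placed on artificial diet surface-treated with 50 μg/cm^2 compound in 90:10 acetone-water, dried before infestation. Held 25 °C, 14:10 light-dark for five to seven days; percent mortality scored per well and averaged over eight wells.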

Turning to `Cc1ccccc1NC(=S)NC(=O)NCCc1cccc(-c2ncn(-c3ccc(OC(F)(F)F)cc3)n2)c1` [PC74, 1-(o-tolylcarbamothioyl)-3-[2-[3-[1-[4-(trifluoromethoxy)phenyl]-1H-1,2,4-triazol-3-yl]phenyl]ethyl]urea], the pest or weed control at 50 µg/cm2 in assay [1] and in assay [2] was 50 to 100% in each case.

As for `CCc1cccc(C)c1NC(=S)NC(=O)NCCc1cccc(-c2ncn(-c3ccc(OC(F)(F)F)cc3)n2)c1` [PC83, 1-[(2-ethyl-6-methyl-phenyl)carbamothioyl]-3-[2-[3-[1-[4-(trifluoromethoxy)phenyl]-1H-1,2,4-triazol-3-yl]phenyl]ethyl]urea], the pest or weed control at 50 µg/cm2 in assay [1] and in assay [2] was 50 to 100% throughout.

With `Cc1ccccc1NC(=S)NC(=O)NCCCc1ccc(-c2ncn(-c3ccc(OC(F)(F)F)cc3)n2)cc1` [PC92, 1-(o-tolylcarbamothioyl)-3-[3-[4-[1-[4-(trifluoromethoxy)phenyl]-1H-1,2,4-triazol-3-yl]phenyl]propyl]urea], the pest or weed control at 50 µg/cm2 in assay [1] and in assay [2] was 50 to 100% in each case.

For `CCc1ccccc1NC(=S)NC(=O)NCCCc1ccc(-c2ncn(-c3ccc(OC(F)(F)F)cc3)n2)cc1` [PC93, 1-[(2-ethylphenyl)carbamothioyl]-3-[3-[4-[1-[4-(trifluoromethoxy)phenyl]-1H-1,2,4-triazol-3-yl]phenyl]propyl]urea], the pest or weed control at 50 µg/cm2 in assay [1] and in assay [2] was 50 to 100% each time.

Consider `CC(C)c1ccccc1NC(=S)NC(=O)NCCCc1ccc(-c2ncn(-c3ccc(OC(F)(F)F)cc3)n2)cc1` [PC94, 1-[(2-isopropylphenyl)carbamothioyl]-3-[3-[4-[1-[4-(trifluoromethoxy)phenyl]-1H-1,2,4-triazol-3-yl]phenyl]propyl]urea], for which the pest or weed control at 50 µg/cm2 in assay [1] and in assay [2] was 50 to 100% each time.

For the compound `CCc1cccc(C)c1NC(=S)NC(=O)NCCCc1ccc(-c2ncn(-c3ccc(OC(F)(F)F)cc3)n2)cc1` [PC101, 1-[(2-ethyl-6-methyl-phenyl)carbamothioyl]-3-[3-[4-[1-[4-(trifluoromethoxy)phenyl]-1H-1,2,4-triazol-3-yl]phenyl]propyl]urea], the pest or weed control at 50 µg/cm2 in assay [1] and in assay [2] was 50 to 100% throughout.

As to `CCc1ccccc1NC(=S)NC(=O)NCCCc1cccc(-c2ncn(-c3ccc(OC(F)(F)F)cc3)n2)c1` [PC119, 1-[(2-ethylphenyl)carbamothioyl]-3-[3-[3-[1-[4-(trifluoromethoxy)phenyl]-1H-1,2,4-triazol-3-yl]phenyl]propyl]urea], the pest or weed control at 50 µg/cm2 in assay [1] and in assay [2] was 50 to 100% in each case.

Take `CC(C)c1ccccc1NC(=S)NC(=O)NCCCc1cccc(-c2ncn(-c3ccc(OC(F)(F)F)cc3)n2)c1` [PC120, 1-[(2-isopropylphenyl)carbamothioyl]-3-[3-[3-[1-[4-(trifluoromethoxy)phenyl]-1H-1,2,4-triazol-3-yl]phenyl]propyl]urea]: the pest or weed control at 50 µg/cm2 in assay [1] and in assay [2] was 50 to 100% each time.

With `Cc1ccc(C(C)C)c(NC(=S)NC(=O)NCCCc2cccc(-c3ncn(-c4ccc(OC(F)(F)F)cc4)n3)c2)c1` [PC124, 1-[(2-isopropyl-5-methyl-phenyl)carbamothioyl]-3-[3-[3-[1-[4-(trifluoromethoxy)phenyl]-1H-1,2,4-triazol-3-yl]phenyl]propyl]urea], the pest or weed control at 50 µg/cm2 in assay [1] and in assay [2] was 50 to 100% in each case.

Turning to `CCCc1ccc(C)cc1NC(=S)NC(=O)NCCCc1cccc(-c2ncn(-c3ccc(OC(F)(F)F)cc3)n2)c1` [PC125, 1-[(5-methyl-2-propyl-phenyl)carbamothioyl]-3-[3-[3-[1-[4-(trifluoromethoxy)phenyl]-1H-1,2,4-triazol-3-yl]phenyl]propyl]urea], the pest or weed control at 50 µg/cm2 in assay [1] and in assay [2] was 50 to 100% each time.

Take `CCc1cccc(C)c1NC(=S)NC(=O)NCCCc1cccc(-c2ncn(-c3ccc(OC(F)(F)F)cc3)n2)c1` [PC127, 1-[(2-ethyl-6-methyl-phenyl)carbamothioyl]-3-[3-[3-[1-[4-(trifluoromethoxy)phenyl]-1H-1,2,4-triazol-3-yl]phenyl]propyl]urea]: the pest or weed control at 50 µg/cm2 in assay [1] and in assay [2] was 50 to 100% each time.

`Cc1ccc(NC(=S)NC(=O)NCCCc2cccc(-c3ncn(-c4ccc(OC(F)(F)F)cc4)n3)c2)c(C(C)C)c1` [PC128, 1-[(2-isopropyl-4-methyl-phenyl)carbamothioyl]-3-[3-[3-[1-[4-(trifluoromethoxy)phenyl]-1H-1,2,4-triazol-3-yl]phenyl]propyl]urea]: the pest or weed control at 50 µg/cm2 in assay [1] and in assay [2] was 50 to 100% in each case.

For the compound `CC(C)c1cc(F)ccc1NC(=S)NC(=O)NCCCc1cccc(-c2ncn(-c3ccc(OC(F)(F)F)cc3)n2)c1` [PC129, 1-[(4-fluoro-2-isopropyl-phenyl)carbamothioyl]-3-[3-[3-[1-[4-(trifluoromethoxy)phenyl]-1H-1,2,4-triazol-3-yl]phenyl]propyl]urea], the pest or weed control at 50 µg/cm2 in assay [1] and in assay [2] was 50 to 100% in each case.

In the case of `COc1ccc(NC(=S)NC(=O)NCCCc2cccc(-c3ncn(-c4ccc(OC(F)(F)F)cc4)n3)c2)c(C)c1` [PC131, 1-[(4-methoxy-2-methyl-phenyl)carbamothioyl]-3-[3-[3-[1-[4-(trifluoromethoxy)phenyl]-1H-1,2,4-triazol-3-yl]phenyl]propyl]urea], the pest or weed control at 50 µg/cm2 in assay [1] and in assay [2] was 50 to 100% in each case.

`Cc1ccccc1NC(=S)NC(=O)NCCCCc1ccc(-c2ncn(-c3ccc(OC(F)(F)F)cc3)n2)cc1` [PC144, 1-(o-tolylcarbamothioyl)-3-[4-[4-[1-[4-(trifluoromethoxy)phenyl]-1H-1,2,4-triazol-3-yl]phenyl]butyl]urea]: the pest or weed control at 50 µg/cm2 in assay [1] and in assay [2] was 50 to 100% in each case.

With `CCc1ccccc1NC(=S)NC(=O)NCCCCc1ccc(-c2ncn(-c3ccc(OC(F)(F)F)cc3)n2)cc1` [PC145, 1-[(2-ethylphenyl)carbamothioyl]-3-[4-[4-[1-[4-(trifluoromethoxy)phenyl]-1H-1,2,4-triazol-3-yl]phenyl]butyl]urea], the pest or weed control at 50 µg/cm2 in assay [1] and in assay [2] was 50 to 100% each time.

Turning to `CC(C)c1ccccc1NC(=S)NC(=O)NCCCCc1ccc(-c2ncn(-c3ccc(OC(F)(F)F)cc3)n2)cc1` [PC146, 1-[(2-isopropylphenyl)carbamothioyl]-3-[4-[4-[1-[4-(trifluoromethoxy)phenyl]-1H-1,2,4-triazol-3-yl]phenyl]butyl]urea], the pest or weed control at 50 µg/cm2 in assay [1] and in assay [2] was 50 to 100% each time.

Regarding `Cc1ccc(C(C)C)c(NC(=S)NC(=O)NCCCCc2ccc(-c3ncn(-c4ccc(OC(F)(F)F)cc4)n3)cc2)c1` [PC150, 1-[(2-isopropyl-5-methyl-phenyl)carbamothioyl]-3-[4-[4-[1-[4-(trifluoromethoxy)phenyl]-1H-1,2,4-triazol-3-yl]phenyl]butyl]urea], the pest or weed control at 50 µg/cm2 in assay [1] and in assay [2] was 50 to 100% in each case.

Regarding `Cc1cccc(C)c1NC(=S)NC(=O)NCCCCc1ccc(-c2ncn(-c3ccc(OC(F)(F)F)cc3)n2)cc1` [PC152, 1-[(2,6-dimethylphenyl)carbamothioyl]-3-[4-[4-[1-[4-(trifluoromethoxy)phenyl]-1H-1,2,4-triazol-3-yl]phenyl]butyl]urea], the pest or weed control at 50 µg/cm2 in assay [1] and in assay [2] was 50 to 100% throughout.

Take `Cc1ccc(NC(=S)NC(=O)NCCCCc2ccc(-c3ncn(-c4ccc(OC(F)(F)F)cc4)n3)cc2)c(C(C)C)c1` [PC154, 1-[(2-isopropyl-4-methyl-phenyl)carbamothioyl]-3-[4-[4-[1-[4-(trifluoromethoxy)phenyl]-1H-1,2,4-triazol-3-yl]phenyl]butyl]urea]: the pest or weed control at 50 µg/cm2 in assay [1] and in assay [2] was 50 to 100% in each case.

Take `CC(C)c1cc(F)ccc1NC(=S)NC(=O)NCCCCc1ccc(-c2ncn(-c3ccc(OC(F)(F)F)cc3)n2)cc1` [PC155, 1-[(4-fluoro-2-isopropyl-phenyl)carbamothioyl]-3-[4-[4-[1-[4-(trifluoromethoxy)phenyl]-1H-1,2,4-triazol-3-yl]phenyl]butyl]urea]: the pest or weed control at 50 µg/cm2 in assay [1] and in assay [2] was 50 to 100% in each case.

With `COc1ccc(C(C)C)c(NC(=S)NC(=O)NCCCCc2ccc(-c3ncn(-c4ccc(OC(F)(F)F)cc4)n3)cc2)c1` [PC156], the pest or weed control at 50 µg/cm2 in assay [1] and in assay [2] was 50 to 100% throughout.

`Cc1ccc(C(C)C)c(NC(=S)NC(=O)NCCCCc2ccc(-c3ncn(-c4ccc(C(F)(F)F)cc4)n3)cc2)c1` [PC159, 1-[(2-isopropyl-5-methyl-phenyl)carbamothioyl]-3-[4-[4-[1-[4-(trifluoromethyl)phenyl]-1H-1,2,4-triazol-3-yl]phenyl]butyl]urea]: the pest or weed control at 50 µg/cm2 in assay [1] and in assay [2] was 50 to 100% each time.

With `Cc1ccc(C(C)C)c(NC(=S)NC(=O)NCCC#Cc2ccc(-c3ncn(-c4ccc(OC(F)(F)F)cc4)n3)cc2)c1` [PC160, 1-[(2-isopropyl-5-methyl-phenyl)carbamothioyl]-3-[4-[4-[1-[4-(trifluoromethoxy)phenyl]-1H-1,2,4-triazol-3-yl]phenyl]but-3-ynyl]urea], the pest or weed control at 50 µg/cm2 in assay [1] and in assay [2] was 50 to 100% each time.
